Reference: patent US12209075B2, “Pyridine-sulfonamide derivatives as sodium channel inhibitors” (GENENTECH, INC., priority 2018, dated 2025)
Where a name gives a salt, the structure may show the parent alone.

Assays:
hNav1.7 [1] = molecular target: T1, hNav1.7 (Homo sapiens (Human), UniProt Q15858); assay: Tritiated compound binding to membranes from cells expressing hNav1.7 and the β1 subunit (Nav1.7 LBA EVO); conditions: competitive binding vs [3H]compound, membranes with hNav1.7 and β1 subunit
Experimental: Example 64a. Tritiated Compound Binding to Membranes Isolated from Cells that Heterologously Express hNav1.7 and the β1 Subunit
Preparation of membranes containing recombinantly expressed sodium channels: Frozen recombinant cell pellets are thawed on ice and diluted to 4 times the cell pellet weight with ice cold 50 mM Tris HCl, pH 7.4 buffer. The cell suspensions are homogenized on ice using a motorized glass dounce homogeniser. Homogenates are further diluted 8.4 times with ice cold 50 mM Tris HCl, pH 7.4 buffer and then centrifuged at 200×g at 4° C. for 15 minutes. The supernatants are collected and centrifuged at 10000×g at 4° C. for 50 min. The pellets are then re-suspended in 100 mM NaCl, 20 mM Tris HCl, pH 7.4 buffer containing 1% v/v protease inhibitors (Calbiochem) and re-homogenized on ice. The homogenized membranes are then processed through a syringe equipped with a 26 gauge needle. Protein concentrations arer determined by Bradford Assay and the membranes are stored at −80° C.
Radioligand Binding Studies: Saturation experiments. A competitive NaV1.7 inhibitor having a methyl group is tritiated. Three tritiums are incorporated in place of methyl hydrogens to generate [^3H]compound. Binding of this radioligand is performed in 5 mL borosilicate glass test tubes at room temperature. Binding is initiated by adding membranes to increasing concentrations of [^3H]compound in 100 mM NaCl, 20 mM Tris HCl, pH 7.4 buffer containing 0.01% w/v bovine serum albumin (BSA) for 18 h. Non-specific binding is determined in the presence of 1 μM unlabeled compound. After 18 h, the reactants are filtered through GF/C glass fiber filters presoaked in 0.5% w/v polyethylene imine. Filters are washed with 15 mL ice cold 100 mM NaCl, 20 mM Tris HCl, pH7.4 buffer containing 0.25% BSA to separate bound from free ligand. [^3H]compound bound to filters is quantified by liquid scintillation counting.
Competitive binding experiments: Binding reactions are performed in 96-well polypropylene plates at room temperature for 18 h. In 360 μL, membranes are incubated with 100 pM [^3H]compound and increasing concentrations of Test Compound. Non-specific binding is defined in the presence of 1 μM unlabeled compound. Reactions are transferred and filtered through 96-well glass fiber/C filter plates presoaked with 0.5% polyethylene imine. The filtered reactions are washed 5 times with 200 μL ice cold buffer containing 0.25% BSA. Bound radioactivity is determined by liquid scintillation counting.
Data Analysis: For saturation experiments, non-specific binding is subtracted from total binding to provide specific binding and these values are recalculated in terms of pmol ligand bound per mg protein. Saturation curves are constructed and dissociation constants are calculated using the single site ligand binding model: Beq=(Bmax*X)/(X+Kd), where Beq is the amount of ligand bound at equilibrium, Bmax is the maximum receptor density, Kd is the dissociation constant for the ligand, and X is the free ligand concentration. For competition studies percent inhibition is determined and IC50 values are calculated using a 4 parameter logistic model (% inhibition=(A+((B−A)/(1+((x/C)^D)))) using XLfit, where A and B are the maximal and minimum inhibition respectively, C is the IC50 concentration and D is the (Hill) slope.
Example 64b. Tritiated Compound Binding to Membranes Isolated from Cells that Heterologous Express hNav1.7 and the β1 Subunit
Preparation of membranes containing recombinantly expressed sodium channels: Following the procedure described in 31a, and making modifications as required to: centrifuge supernatants at 100000×g instead of 10000×g; re-suspend pellets in a buffer containing 0.01% BSA in addition to 100 mM NaCl, 20 mM Tris HCl, pH 7.4 buffer, and 1% v/v […]; and storing membranes at −80° C. in single use aliquots instead of pooled. […]
Target sequence in this assay (Q15858 whole entry, looked up): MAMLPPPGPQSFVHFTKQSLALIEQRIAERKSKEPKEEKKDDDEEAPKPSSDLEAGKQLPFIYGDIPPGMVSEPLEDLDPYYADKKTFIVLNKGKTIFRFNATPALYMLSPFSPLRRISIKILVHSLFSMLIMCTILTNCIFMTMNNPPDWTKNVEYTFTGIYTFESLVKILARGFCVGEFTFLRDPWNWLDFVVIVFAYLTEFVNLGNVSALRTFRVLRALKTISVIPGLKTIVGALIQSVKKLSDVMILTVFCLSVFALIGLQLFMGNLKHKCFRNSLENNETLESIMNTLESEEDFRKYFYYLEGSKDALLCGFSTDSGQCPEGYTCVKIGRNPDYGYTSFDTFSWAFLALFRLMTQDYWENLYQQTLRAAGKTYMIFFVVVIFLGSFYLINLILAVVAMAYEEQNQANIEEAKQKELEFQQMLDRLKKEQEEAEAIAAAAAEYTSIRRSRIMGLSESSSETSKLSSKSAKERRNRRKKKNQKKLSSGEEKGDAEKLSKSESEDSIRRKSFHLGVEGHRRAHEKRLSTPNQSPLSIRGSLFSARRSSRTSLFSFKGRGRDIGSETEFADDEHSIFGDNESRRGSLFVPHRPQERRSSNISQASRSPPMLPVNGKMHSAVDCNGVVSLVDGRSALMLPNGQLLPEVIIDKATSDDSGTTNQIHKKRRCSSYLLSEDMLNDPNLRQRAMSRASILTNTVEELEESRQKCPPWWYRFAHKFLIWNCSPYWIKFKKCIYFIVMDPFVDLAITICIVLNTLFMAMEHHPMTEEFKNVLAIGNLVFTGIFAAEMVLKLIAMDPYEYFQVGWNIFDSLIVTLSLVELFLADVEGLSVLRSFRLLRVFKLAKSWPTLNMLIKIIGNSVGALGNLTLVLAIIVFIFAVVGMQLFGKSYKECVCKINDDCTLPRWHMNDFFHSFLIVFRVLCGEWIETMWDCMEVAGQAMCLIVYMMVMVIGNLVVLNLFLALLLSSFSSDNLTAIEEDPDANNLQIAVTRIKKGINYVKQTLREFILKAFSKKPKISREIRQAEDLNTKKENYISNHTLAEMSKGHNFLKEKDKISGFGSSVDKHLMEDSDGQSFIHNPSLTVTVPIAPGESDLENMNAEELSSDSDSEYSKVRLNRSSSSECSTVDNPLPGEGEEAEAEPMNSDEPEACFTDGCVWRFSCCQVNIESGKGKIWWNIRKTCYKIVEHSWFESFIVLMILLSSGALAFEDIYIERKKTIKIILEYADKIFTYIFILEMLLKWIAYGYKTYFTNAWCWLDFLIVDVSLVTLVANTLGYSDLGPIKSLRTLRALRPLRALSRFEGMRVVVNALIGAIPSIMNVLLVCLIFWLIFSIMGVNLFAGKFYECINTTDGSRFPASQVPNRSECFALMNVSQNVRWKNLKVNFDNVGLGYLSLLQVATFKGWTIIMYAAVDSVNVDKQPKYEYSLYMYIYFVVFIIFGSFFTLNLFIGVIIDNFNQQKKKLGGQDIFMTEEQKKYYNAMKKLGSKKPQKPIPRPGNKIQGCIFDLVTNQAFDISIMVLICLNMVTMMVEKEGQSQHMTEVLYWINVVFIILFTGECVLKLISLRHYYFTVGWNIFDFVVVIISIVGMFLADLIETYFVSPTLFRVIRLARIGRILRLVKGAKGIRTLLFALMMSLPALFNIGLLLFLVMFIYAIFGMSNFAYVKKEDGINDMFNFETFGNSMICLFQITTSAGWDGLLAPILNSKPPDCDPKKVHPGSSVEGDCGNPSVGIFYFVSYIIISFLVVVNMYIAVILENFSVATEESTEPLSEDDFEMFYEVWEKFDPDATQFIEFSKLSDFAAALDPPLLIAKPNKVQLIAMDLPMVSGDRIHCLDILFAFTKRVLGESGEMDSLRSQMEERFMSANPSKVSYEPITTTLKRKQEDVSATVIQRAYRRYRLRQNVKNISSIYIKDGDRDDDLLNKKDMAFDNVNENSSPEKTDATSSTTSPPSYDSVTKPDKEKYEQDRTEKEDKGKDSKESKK
Target sequence in this assay (Q07699 whole entry partner, looked up): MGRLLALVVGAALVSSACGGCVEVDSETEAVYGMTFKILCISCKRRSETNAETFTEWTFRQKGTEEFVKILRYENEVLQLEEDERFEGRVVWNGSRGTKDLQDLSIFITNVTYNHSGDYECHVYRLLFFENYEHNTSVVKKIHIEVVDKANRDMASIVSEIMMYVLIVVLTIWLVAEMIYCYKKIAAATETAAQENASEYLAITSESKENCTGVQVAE

hNav1.7 [2] = molecular target: T1, hNav1.7; assay: Patch voltage clamp electrophysiology assay (EP), Syncropatch 384PE, CHO cells expressing Nav1.7; assay type: cell-based; conditions: holding potential −50 mV, 7.5 min compound incubation; read-out: EP_SP hNav1.7 EVO IC50
Text: Example 64c. Electrophysiological Assay (EP) (In Vitro Assay)
Patch voltage clamp electrophysiology allows for the direct measurement and quantification of block of voltage-gated sodium channels (NaV's), and allows the determination of the time- and voltage-dependence of block which has been interpreted as differential binding to the resting, open, and inactivated states of the sodium channel (Hille, B., Journal of General Physiology (1977), 69: 497-515).
The following voltage clamp electrophysiology studies are performed on representative compounds using cells heterologously expressing Nav1.7 or Nav1.5 channels. cDNAs for Nav1.7 (NM 002977) and Nav1.5 (AC137587) are stably expressed in Chinese Hamstr Ovary (CHO) cells and CHL (Chinese Hamster Lung) cells respectively. Sodium currents are measured in the whole-cell configuration using Syncropatch 384PE ([…], Germany). 1NPC®-384 chips with custom medium resistance and single hole mode are used. Internal solution consists of (in mM): […], 10CsCl, 20EGTA, and 10Hepes (pH adjusted to 7.2); and external solution contains (in mM): 60NMDG, 80NaCl, 4 KCl, 1MgCl2, 2CaCl2, 2D-Glucose monohydrate, 10Hepes (pH adjusted to 7.4 with NaOH).
After system flushing, testing compounds are dissolved in external solution containing 0.1% Pluronic F-127. The chip is moved into the measuring head and the instrument primes the chip with external and internal solutions. 10 μl cells are added to the chip from a cell hotel, and a negative pressure of −50 mBar is applied to form a seal. Following treatment with seal enhancer solution and wash-off with external solution, negative pressure of −250 mbar is applied for 1 second to achieve the whole-cell configuration, followed by three washing steps in external solution. 20 μl of compounds is added to 40 μl in each well (1:3 dilution of compounds), and after mixing, 20 μl is removed so the volume is retained at 40 ul. After approximately 13 minutes recordings, 20 μl/well of 2 uM TTX, or 333 uM Tetracaine (for Nav1.5) is added to achieve full block.
For voltage protocol, an holding potential of −50 mV is applied during the whole experiment. A depolarizing step is applied to −10 mV for 10 ms, followed by a hyperpolarization step to −150 mV for 20 ms to allow channel recovery from inactivation. A second depolarizing step is applied from −150 mV to −10 mV for 10 ms, where currents are measured to derive blocking effects of compounds. Inhibition is determined based on 7.5 min of compound incubation.
Target sequence in this assay (Q15858 other isoform, or with tags, fused parts or gaps): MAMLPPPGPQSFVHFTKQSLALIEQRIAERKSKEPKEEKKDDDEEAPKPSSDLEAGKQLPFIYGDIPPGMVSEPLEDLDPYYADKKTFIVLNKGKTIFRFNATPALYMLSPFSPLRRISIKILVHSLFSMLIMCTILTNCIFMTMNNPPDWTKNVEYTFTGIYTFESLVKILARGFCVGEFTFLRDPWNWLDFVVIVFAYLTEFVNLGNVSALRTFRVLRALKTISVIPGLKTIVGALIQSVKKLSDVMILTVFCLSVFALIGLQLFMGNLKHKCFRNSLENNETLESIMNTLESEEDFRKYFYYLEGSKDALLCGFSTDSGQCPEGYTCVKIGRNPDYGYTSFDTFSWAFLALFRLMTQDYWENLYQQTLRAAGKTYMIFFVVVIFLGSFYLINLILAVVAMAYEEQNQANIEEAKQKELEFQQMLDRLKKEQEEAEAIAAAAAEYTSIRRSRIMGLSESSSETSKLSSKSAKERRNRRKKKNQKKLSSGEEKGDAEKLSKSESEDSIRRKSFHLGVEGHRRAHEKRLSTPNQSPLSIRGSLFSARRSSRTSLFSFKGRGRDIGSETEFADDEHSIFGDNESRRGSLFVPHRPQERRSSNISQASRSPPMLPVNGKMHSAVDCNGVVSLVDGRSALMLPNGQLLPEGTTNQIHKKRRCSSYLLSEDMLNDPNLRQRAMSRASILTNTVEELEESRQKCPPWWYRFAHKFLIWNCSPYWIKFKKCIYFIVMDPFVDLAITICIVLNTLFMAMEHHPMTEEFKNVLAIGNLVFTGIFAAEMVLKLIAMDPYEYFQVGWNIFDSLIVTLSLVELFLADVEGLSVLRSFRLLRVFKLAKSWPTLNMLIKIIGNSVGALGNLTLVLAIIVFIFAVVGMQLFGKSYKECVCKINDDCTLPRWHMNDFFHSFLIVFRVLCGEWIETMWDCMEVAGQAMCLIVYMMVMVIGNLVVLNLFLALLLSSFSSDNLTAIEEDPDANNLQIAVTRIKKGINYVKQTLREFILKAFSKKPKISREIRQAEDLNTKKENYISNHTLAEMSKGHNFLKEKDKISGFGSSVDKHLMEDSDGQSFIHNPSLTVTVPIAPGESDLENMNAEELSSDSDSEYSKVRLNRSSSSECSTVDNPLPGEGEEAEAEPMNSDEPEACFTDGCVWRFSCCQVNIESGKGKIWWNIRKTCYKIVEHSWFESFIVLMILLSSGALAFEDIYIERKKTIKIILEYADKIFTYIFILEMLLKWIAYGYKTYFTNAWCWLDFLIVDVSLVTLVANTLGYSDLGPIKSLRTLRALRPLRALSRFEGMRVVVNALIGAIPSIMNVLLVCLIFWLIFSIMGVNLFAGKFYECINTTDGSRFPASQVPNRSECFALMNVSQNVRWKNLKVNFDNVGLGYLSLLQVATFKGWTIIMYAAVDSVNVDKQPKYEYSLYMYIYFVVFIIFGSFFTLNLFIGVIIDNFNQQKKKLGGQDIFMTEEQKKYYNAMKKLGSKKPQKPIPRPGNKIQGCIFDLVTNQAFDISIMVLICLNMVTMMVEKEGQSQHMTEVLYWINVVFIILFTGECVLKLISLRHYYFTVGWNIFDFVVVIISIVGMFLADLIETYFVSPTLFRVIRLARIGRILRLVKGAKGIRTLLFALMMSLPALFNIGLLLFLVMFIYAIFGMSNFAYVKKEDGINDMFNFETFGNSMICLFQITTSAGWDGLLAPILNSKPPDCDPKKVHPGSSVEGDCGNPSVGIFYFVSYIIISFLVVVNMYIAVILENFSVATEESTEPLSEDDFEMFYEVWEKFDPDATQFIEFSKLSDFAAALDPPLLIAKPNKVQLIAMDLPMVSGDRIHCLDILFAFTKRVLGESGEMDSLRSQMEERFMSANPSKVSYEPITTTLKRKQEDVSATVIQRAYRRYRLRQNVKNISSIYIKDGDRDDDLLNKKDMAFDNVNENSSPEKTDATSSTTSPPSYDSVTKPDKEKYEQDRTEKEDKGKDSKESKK

“6-(((1S,2S,4S)-2-(dimethylamino)-4-(6-(trifluoromethyl)pyridin-2-yl)cyclohexyl)oxy)-2-methyl-N-(pyrimidin-4-yl)pyridine-3-sulfonamide [Example 51]” showed an IC50 (hNav1.7 [1]) of 0.985 nM and an IC50 (hNav1.7 [2]) of 4.59 nM.

For `CN(C)[C@H]1C[C@@H](c2cccc(OC(F)(F)F)c2)CC[C@@H]1Nc1ccc(S(=O)(=O)Nc2ccncn2)cn1` [Example 8, 6-(((1S,2S,4S)-2-(dimethylamino)-4-(3-(trifluoromethoxy)phenyl)cyclohexyl)amino)-N-(pyrimidin-4-yl)pyridine-3-sulfonamide formate], the IC50 (hNav1.7 [1]) was 7.12 nM and the IC50 (hNav1.7 [2]) was 0.574 nM.

Work on `Cc1nc(O[C@H]2CC[C@H](c3ccc(Cl)c(Cl)c3)C[C@@H]2N(C)C)ccc1S(=O)(=O)Nc1ccncn1` [Example 37, 6-(((1S,2S,4S)-4-(3,4-dichlorophenyl)-2-(dimethylamino)cyclohexyl)oxy)-2-methyl-N-(pyrimidin-4-yl)pyridine-3-sulfonamide] yielded an IC50 (hNav1.7 [1]) of 1.36 nM and an IC50 (hNav1.7 [2]) of 0.301 nM.

With `Cc1nc(O[C@H]2CC[C@H](c3cc(Cl)cc(Cl)c3)C[C@@H]2N(C)C)ccc1S(=O)(=O)Nc1ccncn1` [Example 50, 6-(((1S,2S,4S)-4-(3,5-dichlorophenyl)-2-(dimethylamino)cyclohexyl)oxy)-2-methyl-N-(pyrimidin-4-yl)pyridine-3-sulfonamide] the IC50 (hNav1.7 [1]) was 1.12 nM and the IC50 (hNav1.7 [2]) was 0.222 nM.

Molecule `CN(C)[C@H]1C[C@@H](c2cccc(Cl)c2)CC[C@@H]1Oc1ncc(S(=O)(=O)Nc2ccncn2)cc1Cl` [Example 27, 5-Chloro-6-(((1S,2S,4S)-4-(3-chlorophenyl)-2-(dimethylamino)cyclohexyl)oxy)-N-(pyrimidin-4-yl)pyridine-3-sulfonamide] has an IC50 (hNav1.7 [1]) of 7.12 nM and an IC50 (hNav1.7 [2]) of 0.574 nM.

`O=S(=O)(Nc1ccncn1)c1ccc(N[C@H]2CC[C@H](c3cccc(C(F)(F)F)c3)C[C@@H]2N2CCCC2)nc1` [Example 16, N-(pyrimidin-4-yl)-6-(((1S,2S,4S)-2-(pyrrolidin-1-yl)-4-(3-(trifluoromethyl)phenyl)cyclohexyl)-amino)pyridine-3-sulfonamide formate] was tested, and the IC50 (hNav1.7 [1]) was 25.1 nM.

`CN(C)[C@H]1C[C@@H](c2cccc(C(F)(F)F)c2)CC[C@@H]1Oc1ncc(S(=O)(=O)Nc2ccncn2)cc1C#N` [Example 6, 5-Cyano-6-(((1S,2S,4S)-2-(dimethylamino)-4-(3-(trifluoromethyl)phenyl)cyclohexyl)oxy)-N-(pyrimidin-4-yl)pyridine-3-sulfonamide formate] gave an IC50 (hNav1.7 [1]) of 44.8 nM.

In the case of `O=S(=O)(Nc1ccncn1)c1ccc(N[C@H]2CC[C@H](c3cccc(OC(F)(F)F)c3)C[C@@H]2N2CCCC2)nc1` [Example 9, N-(pyrimidin-4-yl)-6-(((1S,2S,4S)-2-(pyrrolidin-1-yl)-4-(3-(trifluoromethoxy)phenyl)cyclohexyl)-amino)pyridine-3-sulfonamide formate], the IC50 (hNav1.7 [1]) is reported as 4.11 nM and the IC50 (hNav1.7 [2]) is reported as 0.664 nM.

Work on `CCN(CC)[C@H]1C[C@@H](c2cccc(C(F)(F)F)c2)CC[C@@H]1Oc1ccc(S(=O)(=O)Nc2ccncn2)c(C)n1` [Example 47, 6-(((1S,2S,4S)-2-(Diethylamino)-4-(3-(trifluoromethyl)phenyl)cyclohexyl)oxy)-2-methyl-N-(pyrimidin-4-yl)pyridine-3-sulfonamide] yielded an IC50 (hNav1.7 [1]) of 0.915 nM.

In the case of `Cc1nc(O[C@H]2CC[C@H](c3cccc(CC(F)(F)F)c3)C[C@@H]2N(C)C)ccc1S(=O)(=O)Nc1ccncn1` [Example 59, 6-(((1S,2S,4S)-2-(dimethylamino)-4-(3-(2,2,2-trifluoroethyl)phenyl)cyclohexyl)oxy)-2-methyl-N-(pyrimidin-4-yl)pyridine-3-sulfonamide], the IC50 (hNav1.7 [1]) is reported as 1.59 nM.

`Cc1nc(O[C@H]2CC[C@H](c3ccc(Cl)c(C(F)(F)F)c3)C[C@@H]2N(C)C)ccc1S(=O)(=O)Nc1ccncn1` [Example 36, 6-(((1S,2S,4S)-4-(4-chloro-3-(trifluoromethyl)phenyl)-2-(dimethylamino)cyclohexyl)oxy)-2-methyl-N-(pyrimidin-4-yl)pyridine-3-sulfonamide] gave an IC50 (hNav1.7 [1]) of 1.28 nM.

Molecule `CN(C)[C@H]1C[C@@H](c2cccc(C(F)(F)F)c2)CC[C@@H]1Oc1ccc(S(=O)(=O)Nc2ccncn2)cn1` [Example 1, 6-(((1S,2S,4S)-2-(Dimethylamino)-4-(3-(trifluoromethyl)phenyl)cyclohexyl)oxy)-N-(pyrimidin-4-yl)pyridine-3-sulfonamide] has an IC50 (hNav1.7 [1]) of 28.2 nM.

Molecule `O=S(=O)(Nc1ccncn1)c1cnc(O[C@H]2CC[C@H](c3cccc(C(F)(F)F)c3)C[C@@H]2N2CCCC2)c(Cl)c1` [Example 18, 5-chloro-N-(pyrimidin-4-yl)-6-(((1S,2S,4S)-2-(pyrrolidin-1-yl)-4-(3-(trifluoromethyl)phenyl)-cyclohexyl)oxy)pyridine-3-sulfonamide] has an IC50 (hNav1.7 [1]) of 0.95 nM.

Work on `CN(C)[C@H]1C[C@@H](c2ccc(Cl)c(C(F)(F)F)c2)CC[C@@H]1Oc1ccc(S(=O)(=O)Nc2ccncn2)cn1` [Example 12, 6-(((1S,2S,4S)-4-(4-chloro-3-(trifluoromethyl)phenyl)-2-(dimethylamino)cyclohexyl)oxy)-N-(pyrimidin-4-yl)pyridine-3-sulfonamide formate] yielded an IC50 (hNav1.7 [1]) of 1.27 nM.

Molecule `Cc1nc(O[C@H]2CC[C@H](c3cccc(C(F)(F)F)c3)C[C@@H]2N(C)C)ccc1S(=O)(=O)Nc1ccncn1` [Example 23, 6-(((1S,2S,4S)-2-(Dimethylamino)-4-(3-(trifluoromethyl)phenyl)cyclohexyl)oxy)-2-methyl-N-(pyrimidin-4-yl)pyridine-3-sulfonamide formate] has an IC50 (hNav1.7 [1]) of 8.3 nM.

`Cc1cc([C@H]2CC[C@H](Oc3ccc(S(=O)(=O)Nc4ccncn4)c(C)n3)[C@@H](N(C)C)C2)cc(C(F)(F)F)c1` [Example 58, 6-(((1S,2S,4S)-2-(dimethylamino)-4-(3-methyl-5-(trifluoromethyl)phenyl)cyclohexyl)oxy)-2-methyl-N-(pyrimidin-4-yl)pyridine-3-sulfonamide] showed an IC50 (hNav1.7 [1]) of 2.86 nM.
